Patent publication US8404726B2, “Activating agent for peroxisome proliferator activated receptor δ” (Nippon Chemiphar Co. Ltd., priority 2006, dated 2013)

Columns and labels:
hPPARγ (LBD) = target: T1, hPPARγ (LBD) (Homo sapiens, UniProt P37231); test: PPAR activating function, GAL4-hPPARγ (LBD) luciferase reporter transfected into CV-1 cells; format: cell-based; settings: control Rosiglitazone 10^−5 M = 100%
T1 construct: A receptor expression plasmid (pSG5-GAL4-hPPARα or γ or δ (LBD)); GAL4 (fusion partner); expressed in transfected cells; host or cells: CV-1 cells (ATCC)
T1 sequence (P37231 238-503 limits assumed): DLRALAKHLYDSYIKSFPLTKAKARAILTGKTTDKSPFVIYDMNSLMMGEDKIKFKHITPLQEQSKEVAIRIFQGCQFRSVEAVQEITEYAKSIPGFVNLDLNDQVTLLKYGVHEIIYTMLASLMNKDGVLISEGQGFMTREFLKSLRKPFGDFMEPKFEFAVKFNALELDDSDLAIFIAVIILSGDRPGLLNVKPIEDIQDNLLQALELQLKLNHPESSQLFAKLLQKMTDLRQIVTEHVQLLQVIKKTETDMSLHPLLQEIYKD
Method: (§1) The PPAR activating effect of the compound of the invention was determined by the following method:
(§2) A receptor expression plasmid (pSG5-GAL4-hPPARα or γ or δ (LBD)), a luciferase expression plasmid (MH100×4-TK-Luc), and a β-galactosidase expression plasmid (pCMX-β-GAL) are transfected into CV-1 cells (ATCC) (Kliewer, S. A. et al., (1992) Nature, 358: 771-774). After the gene transfer is conducted by utilizing a lipofection reagent (Lipofectamine 2000, Invitrogen), it is incubated for about 40 hours in the presence of a compound to be tested. The luciferase activity and β-GAL activity are measured on the soluble cells.
(§3) The luciferase activity is calibrated by the β-GAL activity. A relative ligand activity is calculated under the condition that the luciferase activity of the cells treated by GW-590735 for PPARα, Rosiglitazone for PPARγ, or GW-501516 for PPARδ is set to 100% to determine EC50 (see the below-mentioned Examples 14 and 15).
(§4) PPAR activating functions of test compounds (compounds of Examples) were measured in the manner described below.
as §2, with “(pUC8-MH100×4-TK-Luc),” for “(MH100×4-TK-Luc),”, “were” for “are”, “was” for “is”
(§5) The luciferase activity was calibrated by the β-GAL activity. A relative ligand activity was calculated under the condition that the luciferase activity of the cells treated by GW-590735 for PPARα, Rosiglitazone for […], or GW-501516 for PPARδ was set to 100% to determine EC50.
(§6) The tests were conducted in the same manner to Example 14 (1).

hPPARα (LBD) = target: T2, hPPARα (LBD) (Homo sapiens, UniProt Q07869); test: PPAR activating function, GAL4-hPPARα (LBD) luciferase reporter transfected into CV-1 cells; format: cell-based; settings: control GW-590735 10^−6 M = 100%
T2 construct: A receptor expression plasmid (pSG5-GAL4-hPPARα or γ or δ (LBD)); GAL4 (fusion partner); expressed in transfected cells; host or cells: CV-1 cells (ATCC)
T2 sequence (Q07869 239-466 limits assumed): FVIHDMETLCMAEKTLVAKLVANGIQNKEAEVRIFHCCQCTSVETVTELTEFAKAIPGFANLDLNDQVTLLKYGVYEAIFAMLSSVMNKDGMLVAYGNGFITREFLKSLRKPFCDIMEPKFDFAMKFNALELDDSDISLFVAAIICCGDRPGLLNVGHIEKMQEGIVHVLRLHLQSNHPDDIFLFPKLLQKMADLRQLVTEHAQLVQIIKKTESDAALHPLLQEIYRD
Method: as §1, §2, §3, §4
as §2, with “(pUC8-MH100×4-TK-Luc),” for “(MH100×4-TK-Luc),”, “were” for “are”, “was” for “is”
as §5, §6

hPPARδ (LBD) = target: T3, hPPARδ (LBD) (Homo sapiens, UniProt Q03181); test: PPAR activating function, GAL4-hPPARδ (LBD) luciferase reporter transfected into CV-1 cells; format: cell-based
T3 construct: A receptor expression plasmid (pSG5-GAL4-hPPARα or γ or δ (LBD)); GAL4 (fusion partner); expressed in transfected cells; host or cells: CV-1 cells (ATCC)
T3 sequence (Q03181 211-439 limits assumed): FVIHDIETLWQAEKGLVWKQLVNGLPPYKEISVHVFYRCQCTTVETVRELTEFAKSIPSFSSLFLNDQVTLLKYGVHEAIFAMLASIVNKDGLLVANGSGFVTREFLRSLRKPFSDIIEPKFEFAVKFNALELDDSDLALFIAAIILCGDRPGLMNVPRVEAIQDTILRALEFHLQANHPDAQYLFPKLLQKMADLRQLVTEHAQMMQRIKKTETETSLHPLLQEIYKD
Method: as §1, §2, §3, §4
as §2, with “(pUC8-MH100×4-TK-Luc),” for “(MH100×4-TK-Luc),”, “were” for “are”, “was” for “is”
as §5, §6

[1] = 10^−7M of the test compound, control GW-501516 10^−7 M = 100%, CV-1 cells
[2] = 10^−6 M of the test compound (Examples 3 and 8)

## CC(C)c1cc(-c2ccc(C(F)(F)F)cc2)sc1CCC(=O)c1ccc(N(C)CC(=O)O)cc1 [Example 9, N-[4-[3-[3-Isopropyl-5-[4-(trifluoromethyl)phenyl]thiophen-2-yl]propionyl]phenyl]-N-methylglycine]
hPPARγ (LBD); 10^−7 M of the test compound
  PPAR activity PPARγ (relative value, control = 100%): Inactive
hPPARα (LBD); 10^−7 M of the test compound
  PPAR activity PPARα (relative value, control = 100%): Inactive

## CCc1cc(C(=O)CCc2sc(-c3ccc(C(F)(F)F)cc3)nc2C(C)C)ccc1CCC(=O)O [Example 11, 3-[4-[3-[4-Isopropyl-2-[4-(trifluoromethyl)phenyl]-5-thiazolyl]propionyl]-2-ethylphenyl]propionic acid]
hPPARδ (LBD); [1]
  PPAR activity PPARδ: relative value (control = 100%): 89%
hPPARγ (LBD); 10^−7 M of the test compound
  PPAR activity PPARγ: relative value (control = 100%): Inactive
hPPARα (LBD); 10^−7 M of the test compound
  PPAR activity PPARα: relative value (control = 100%): Inactive

## CC(C)c1oc(-c2ccc(Cl)cc2O)nc1CCC(=O)c1ccc(N(C)CC(=O)O)cc1 [Example 10, N-[4-[3-[2-(4-chloro-2-hydroxyphenyl)-5-isopropyl-4-oxazolyl]propionyl]phenyl]-N-methylglycine]
hPPARδ (LBD); [1]
  PPAR activity PPARδ: relative value (control = 100%): 69%
hPPARγ (LBD); 10^−7 M of the test compound
  PPAR activity PPARγ: relative value (control = 100%): Inactive
other
  melting point: 166 to 168 °C
hPPARα (LBD); 10^−7 M of the test compound
  PPAR activity PPARα: relative value (control = 100%): Inactive

## Cc1cc(C(=O)CCc2nc(-c3ccccc3)oc2C(C)C)ccc1CCC(=O)O [Example 3, 3-[4-[3-(5-Isopropyl-2-phenyl-4-oxazolyl)propionyl]-2-methylphenyl]propionic acid]
hPPARγ (LBD); [2]
  PPAR activity PPARγ (relative value, control = 100%): Inactive
hPPARα (LBD); [2]
  PPAR activity PPARα (relative value, control = 100%): Inactive

## CC(C)c1nc(-c2ccc(C(F)(F)F)cc2)sc1CCC(=O)c1ccc(N(C)CC(=O)O)cc1 [Example 7, N-[4-[3-[4-Isopropyl-2-[4-(trifluoromethyl)phenyl]thiazol-5-yl]propionyl]phenyl]-N-methylglycine]
hPPARγ (LBD); 10^−7 M of the test compound
  PPAR activity PPARγ (relative value, control = 100%): Inactive
hPPARα (LBD); 10^−7 M of the test compound
  PPAR activity PPARα (relative value, control = 100%): Inactive

## C=C(CCc1sc(-c2ccc(C(F)(F)F)cc2)nc1C(C)C)c1ccc(CCC(=O)O)c(C)c1 [Example 6, 3-[4-[1-[2-[4-Isopropyl-2-[4-(trifluoromethyl)phenyl]thiazol-5-yl]ethyl]vinyl]-2-methylphenyl]propionic acid]
hPPARγ (LBD); 10^−7 M of the test compound
  PPAR activity PPARγ (relative value, control = 100%): Inactive
hPPARα (LBD); 10^−7 M of the test compound
  PPAR activity PPARα (relative value, control = 100%): Inactive

## Cc1cc(C(=O)CCc2nc(-c3ccc(Cl)cc3O)oc2C(C)C)ccc1CCC(=O)O [Example 12, 3-[4-[3-[2-(4-Chloro-2-hydroxyphenyl)-5-isopropyl-4-oxazolyl]propionyl]-2-methylphenyl]propionic acid]
hPPARδ (LBD); [1]
  PPAR activity PPARδ: relative value (control = 100%): 93%
hPPARγ (LBD); 10^−7 M of the test compound
  PPAR activity PPARγ: relative value (control = 100%): Inactive
other
  melting point: 141 to 144 °C
hPPARα (LBD); 10^−7 M of the test compound
  PPAR activity PPARα: relative value (control = 100%): Inactive

## CC(C)c1nc(-c2ccc(C(F)(F)F)cc2)sc1CCC(=O)c1ccc(NCC(=O)O)cc1 [Example 8, N-[4-[3-[4-Isopropyl-2-[4-(trifluoromethyl)phenyl]thiazol-5-yl]propionyl]phenyl]glycine]
hPPARγ (LBD); [2]
  PPAR activity PPARγ (relative value, control = 100%): Inactive
hPPARα (LBD); [2]
  PPAR activity PPARα (relative value, control = 100%): Inactive

## Cc1cc(C(=O)CCc2sc(-c3ccc(C(F)(F)F)cc3)cc2C(C)C)ccc1CCC(=O)O [Example 2, 3-[4-[3-[3-Isopropyl-5-[4-(trifluoromethyl)phenyl]thiophen-2-yl]propionyl]-2-methylphenyl]propionic acid]
hPPARγ (LBD); 10^−7 M of the test compound
  PPAR activity PPARγ (relative value, control = 100%): Inactive
hPPARα (LBD); 10^−7 M of the test compound
  PPAR activity PPARα (relative value, control = 100%): Inactive

## Cc1cc(C(=O)CCc2sc(-c3ccc(C(F)(F)F)cc3)nc2C(C)C)ccc1CCC(=O)O [Example 5, 3-[4-[3-[4-Isopropyl-2-[4-(trifluoromethyl)phenyl]thiazol-5-yl]propionyl]-2-methylphenyl]propionic acid]
hPPARδ (LBD); summary of Tables 38 and 39
  agonist function for PPARδ (in words): particularly strong agonist function
hPPARγ (LBD); 10^−7 M of the test compound
  PPAR activity PPARγ (relative value, control = 100%): Inactive
hPPARα (LBD); 10^−7 M of the test compound
  PPAR activity PPARα (relative value, control = 100%): Inactive

## Cc1cc(C(=O)C=Cc2sc(-c3ccc(C(F)(F)F)cc3)nc2C(C)C)ccc1C=CC(=O)O [Example 4, 3-[4-[3-[4-Isopropyl-2-[4-(trifluoromethyl)phenyl]thiazol-5-yl-]propenoyl]-2-methylphenyl]acrylic acid]
hPPARδ (LBD); [1]
  PPAR activity PPARδ (relative value, control = 100%): 22%
hPPARγ (LBD); 10^−7 M of the test compound
  PPAR activity PPARγ (relative value, control = 100%): Inactive
hPPARα (LBD); 10^−7 M of the test compound
  PPAR activity PPARα (relative value, control = 100%): Inactive

## CCCCCCc1nc(-c2ccc(C)cc2)sc1CCC(=O)c1ccc(CCC(=O)O)c(C)c1 [Example 1, 3-[4-[3-[4-Hexyl-2-(4-methylphenyl)thiazol-5-yl]propionyl]-2-methylphenyl]propionic acid]
hPPARγ (LBD); 10^−7 M of the test compound
  PPAR activity PPARγ (relative value, control = 100%): Inactive
hPPARα (LBD); 10^−7 M of the test compound
  PPAR activity PPARα (relative value, control = 100%): Inactive

## Cc1cc(C(=O)CCc2nc(-c3ccccc3O)oc2C(C)C)ccc1CCC(=O)O [Example 13, 3-[4-[3-[5-Isopropyl-2-(2-hydroxyphenyl)-4-oxazolyl]propionyl]-2-methylphenyl]propionic acid]
hPPARδ (LBD); 10^−6 M of the test compound, control GW-501516 10^−7 M = 100%, CV-1 cells
  PPAR activity PPARδ: relative value (control = 100%): 62%
hPPARγ (LBD); 10^−6 M of the test compound
  PPAR activity PPARγ: relative value (control = 100%): Inactive
hPPARα (LBD); 10^−6 M of the test compound
  PPAR activity PPARα: relative value (control = 100%): Inactive
